Two compounds from patent publication US8354425B2, “Azabicyclic carboxamide derivatives, preparation thereof and therapeutic use thereof” (Sanofi, priority 2008, dated 2013) can be followed below.

The structures appear in SMILES notation.

The target in series [1] is T1, TRPV1 receptor (Rattus norvegicus, UniProt O35433).
T1 construct: DRG neurones naturally express the TRPV1 receptor; endogenous in cells; host or cells: primary culture of newborn rat dorsal root ganglion neurones
Nature of the series: Test of inhibition of the current induced with capsaicin on rat DRGs (whole-cell patch-clamp). Type of series: cell-based. Particulars: inhibition of control capsaicin response, newborn rat DRG neurones. How it is done:
Test of inhibition of the current induced with capsaicin on rat DRGs • Primary culture of rat dorsal root ganglion (DRG) cells:
DRG neurones naturally express the TRPV1 receptor.
The primary cultures of newborn rat DRGs are prepared using 1-day-old rats. Briefly, after dissection, the ganglions are trypsinized and the cells dissociated by mechanical trituration. The cells are resuspended in an Eagle basal culture medium containing 10% foetal calf serum, 25 mM KCl, 2 mM glutamine, 100 μg/ml gentamicin and 50 ng/ml of NGF, and then deposited on glass slides coated with laminin (0.25×10^6 cells per slide), which are then placed in Corning 12-well dishes. The cells are incubated at 37° C. in a humidified atmosphere containing 5% CO2 and 95% air. […]
The measuring chambers (volume 800 μl) containing the cell preparation are placed on the platform of an inverted microscope (Olympus IMT2) equipped with Hoffman optics (Modulation Contrast, New York) and observed at a magnification of 400×. […] The overall currents (membrane potential set at −60 mV) are recorded with an Axopatch 1D amplifier (Axon Instruments, Foster City, Calif.), connected to a PC running the Pclamp8 software (Axon Instrument). The current plots are recorded on paper and simultaneously digitized (sampling frequency 15 to 25 Hz) and acquired on the hard drive of the PC. […]

Series [2] has as its target T2, local TRPV1 receptors (Mus musculus, UniProt Q704Y3).
T2 construct: from tissue; host or cells: living mouse, hind leg (intraplantar capsaicin injection)
Nature of the series: Pain induced by intraplantar administration of capsaicin to mice. Type of series: in vivo. To be noted: 10 mg/kg orally 120 minutes before intraplantar capsaicin, n=10. How it is done:
Pain induced by intraplantar administration of capsaicin to mice.
The intraplantar injection of capsaicin to mice rapidly produces short-lived nociceptive behaviour, which is reflected by licking, biting and flexing of the administered leg. These nociceptive responses are probably associated with the activation of the local TRPV1 receptors by the capsaicin.
(E)-Capsaicin is initially diluted to 3 mg/ml in DMSO, and then diluted again for its final use to 1.5 μg/20 μl in physiological saline. The administration of solvent has no effect on the behaviour of the mouse. The capsaicin is injected into the hind legs of the animal, on the upper face.
The test compounds are administered orally 120 minutes before the injection of capsaicin. Two hours after administration of the compounds, the mice are placed in a glass beaker. The nociceptive behaviour of the animals is then assessed immediately by the experimenter, and the duration of the capsaicin-induced behavioural manifestations is timed over a period of 2 minutes (licking and biting, total or partial flexure of the injected leg).
For each compound, an inhibition corresponding to the mean of the capsaicin-induced nociceptive responses, in response to a dose of test product (expressed in mg/kg) administered orally to a sample of a given number (n) of mice, is determined. […]

T1 sequence (O35433 whole entry): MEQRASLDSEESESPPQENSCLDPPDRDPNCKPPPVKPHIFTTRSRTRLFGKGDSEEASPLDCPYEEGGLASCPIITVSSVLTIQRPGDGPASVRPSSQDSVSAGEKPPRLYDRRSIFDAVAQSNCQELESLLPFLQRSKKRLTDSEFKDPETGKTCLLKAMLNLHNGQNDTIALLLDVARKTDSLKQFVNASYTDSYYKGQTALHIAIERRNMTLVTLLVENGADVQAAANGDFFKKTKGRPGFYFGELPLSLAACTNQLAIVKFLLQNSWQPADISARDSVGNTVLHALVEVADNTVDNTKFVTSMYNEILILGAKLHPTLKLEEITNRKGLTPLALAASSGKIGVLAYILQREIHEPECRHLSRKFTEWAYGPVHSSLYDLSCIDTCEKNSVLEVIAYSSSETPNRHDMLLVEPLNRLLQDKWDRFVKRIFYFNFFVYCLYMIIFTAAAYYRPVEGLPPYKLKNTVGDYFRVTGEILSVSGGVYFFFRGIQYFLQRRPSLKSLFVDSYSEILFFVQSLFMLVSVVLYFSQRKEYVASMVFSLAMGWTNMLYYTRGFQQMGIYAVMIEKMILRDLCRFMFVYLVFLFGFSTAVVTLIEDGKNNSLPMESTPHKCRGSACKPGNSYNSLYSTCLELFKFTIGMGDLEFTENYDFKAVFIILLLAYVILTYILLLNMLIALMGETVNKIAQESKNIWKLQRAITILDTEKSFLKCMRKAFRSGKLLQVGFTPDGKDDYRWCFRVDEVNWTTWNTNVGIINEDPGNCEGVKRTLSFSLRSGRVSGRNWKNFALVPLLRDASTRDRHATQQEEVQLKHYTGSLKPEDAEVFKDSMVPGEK
T2 sequence (Q704Y3 whole entry): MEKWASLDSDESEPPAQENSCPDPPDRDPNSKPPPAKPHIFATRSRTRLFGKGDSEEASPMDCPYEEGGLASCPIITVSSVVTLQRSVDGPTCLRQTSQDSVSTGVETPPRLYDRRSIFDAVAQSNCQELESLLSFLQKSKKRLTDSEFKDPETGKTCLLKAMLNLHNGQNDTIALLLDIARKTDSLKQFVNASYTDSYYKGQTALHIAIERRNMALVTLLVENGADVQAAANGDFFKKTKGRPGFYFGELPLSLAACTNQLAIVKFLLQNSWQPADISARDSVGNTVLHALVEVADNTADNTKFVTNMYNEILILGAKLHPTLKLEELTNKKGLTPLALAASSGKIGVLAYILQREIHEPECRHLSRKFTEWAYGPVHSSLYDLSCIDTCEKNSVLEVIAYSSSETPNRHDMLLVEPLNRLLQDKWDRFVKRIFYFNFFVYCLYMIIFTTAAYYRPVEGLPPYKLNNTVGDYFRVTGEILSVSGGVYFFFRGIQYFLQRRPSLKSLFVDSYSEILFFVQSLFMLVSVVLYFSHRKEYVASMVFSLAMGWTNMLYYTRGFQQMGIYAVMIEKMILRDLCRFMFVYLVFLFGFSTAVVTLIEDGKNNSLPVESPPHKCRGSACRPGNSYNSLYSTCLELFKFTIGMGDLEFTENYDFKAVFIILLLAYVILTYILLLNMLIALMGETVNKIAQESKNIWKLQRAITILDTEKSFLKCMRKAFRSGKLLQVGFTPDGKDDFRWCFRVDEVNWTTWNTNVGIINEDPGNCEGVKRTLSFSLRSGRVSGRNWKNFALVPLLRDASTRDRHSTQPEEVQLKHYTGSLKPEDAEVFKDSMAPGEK

For orientation: melting point means the temperature of the solid-liquid transition. In general, inhibition refers to the share of the control response that was lost under treatment. High values mean a response far below the control, low ones a response near the control. In turn, `O=C(Nc1cc2cc[nH]c2cn1)c1cc2cc(F)ccc2n1Cc1cccc(F)c1` [Compound 8, N-(1H-Pyrrolo[2,3-c]pyrid-5-yl)-5-fluoro-1-[(3-fluorophenyl]methyl]-1H-indole-2-carboxamide] showed a melting point of 203 to 204 °C. In series [1] (compound at 100 nM), this compound came in with an inhibition at 0.1 µM of 67.5%.
On to `O=C(Nc1cnc2[nH]ccc2c1)c1cc2cc(F)ccc2n1Cc1cccc(F)c1` [Compound 2, N-[1H-Pyrrolo[2,3-b]pyrid-5-yl]-5-fluoro-1-(3-fluorobenzyl)-1H-indole-2-carboxamide], for which the “% inhibition of the capsaicin-induced nociceptive responses” value in series [2] was 61% (±6%). Besides, in series [1] (compound at 1 nM), the inhibition at 0.001 µM was determined as 82%.
